Assay results taken from patent publication EP0326331B1, “Substituted quinolines and cinnolines” (Dow AgroSciences LLC, priority 1988, dated 1989).
Like-named read-outs stand apart in the source and are kept apart here.

Legend:
Assay type in all cases: in vivo
[1] = tested on: Erysiphe graminis tritici (powdery mildew); assay: Test 1 greenhouse foliar spray screen, powdery mildew on wheat; conditions: for POWD MDEW: disease control rating, foliar spray on wheat, 400 ppm (+++ at 100 ppm); for pest or weed control at 400 ppm: Blumeria graminis, foliar, Test 1, foliar spray on wheat, disease control rating at 400 ppm / 100 ppm, read-out: POWD MDEW
[2] = tested on: Pyricularia oryzae (rice blast); assay: whole plant or invertebrate; conditions: for RICE BLAST: disease control rating, foliar spray on rice, 400 ppm (+++ at 100 ppm); for pest or weed control at 400 ppm: Pyricularia oryzae, foliar, read-out: RICE BLAST, Test 1, foliar spray on rice, disease control rating at 400 ppm / 100 ppm
[3] = tested on: Puccinia recondita tritici (leaf rust); assay: Test 1 greenhouse foliar spray screen, leaf rust on wheat; conditions: for LEAF RUST: disease control rating, foliar spray on wheat, 400 ppm (+++ at 100 ppm); for pest or weed control at 400 ppm: Puccinia recondita, foliar, Test 1, foliar spray on wheat, disease control rating at 400 ppm / 100 ppm
[4] = tested on: Botrytis cinerea (gray mold); assay: Test 1 greenhouse foliar spray screen, gray mold on grape berries; conditions: for GRAY MOLD: disease control rating, spray on grape berries, 400 ppm (+++ at 100 ppm); for pest or weed control at 400 ppm: Botrytis cinerea, foliar, Test 1, spray on grape berries, disease control rating at 400 ppm / 100 ppm
[5] = tested on: Pseudoperonospora cubensis (downy mildew); assay: Test 1 greenhouse foliar spray screen, downy mildew on squash; conditions: for DOWN MDEW: disease control rating, foliar spray on squash, 400 ppm (+++ at 100 ppm); for pest or weed control at 400 ppm: Pseudoperonospora cubensis, foliar, Test 1, foliar spray on squash, disease control rating at 400 ppm / 100 ppm, read-out: DOWN MDEW
[6] = tested on: Cercospora beticola (leaf spot); assay: Test 1 greenhouse foliar spray screen, leaf spot on sugar beet; conditions: for LEAF SPOT: disease control rating, foliar spray on sugar beet, 400 ppm (+++ at 100 ppm); for pest or weed control at 400 ppm: Cercospora beticola, Test 1, foliar spray on sugar beet, disease control rating at 400 ppm / 100 ppm
[7] = tested on: Venturia inaequalis (apple scab); assay: Test 1 greenhouse foliar spray screen, apple scab on apple seedling; conditions: for APPL SCAB: disease control rating, foliar spray on apple seedling, 400 ppm (+++ at 100 ppm); for pest or weed control at 400 ppm: Venturia inaequalis, Test 1, foliar spray on apple seedling, disease control rating at 400 ppm / 100 ppm, read-out: APPL SCAB
[8] = tested on: Septoria tritici (leaf blotch); assay: Test 1 greenhouse foliar spray screen, leaf blotch on wheat; conditions: for LEAF BLOT: disease control rating, foliar spray on wheat, 400 ppm (+++ at 100 ppm); for pest or weed control at 400 ppm: Zymoseptoria tritici, Test 1, foliar spray on wheat, disease control rating at 400 ppm / 100 ppm, read-out: LEAF BLOT
[9] = tested on: southern armyworm (Spodopetra eridania Cramer); assay: Mite/insect screen, SAW; conditions: Spodoptera eridania, percent mortality, read-out: SAW RESULTS %
Summary of the method: (§1)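 Compounds dissolved in acetone/alcohol (50:50) with TOXIMUL R and S emulsifiers, diluted in water to test concentrations, and sprayed to runoff on both leaf surfaces at 10 psi, then dried 1 h. For armyworm, excised treated leaves were offered to larvae; percent mortality scored after standard exposure periods.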

[10] = tested on: Twospotted spider mites (Tetranychus urticae Koch); assay: Mite/insect screen, SM; conditions: Tetranychus urticae, percent mortality, read-out: SM RESULTS %
Summary of the method: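 Compounds dissolved in 50:50 acetone/alcohol containing sulfonate/nonionic emulsifier blends, then diluted with water to the indicated concentrations. Leaves sprayed on both surfaces to runoff at 10 psi and dried one hour. Percent mortality scored after standard exposure periods.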

[11] = tested on: melon aphids (Aphis gossypii Glover); assay: Mite/insect screen, MA; conditions: Aphis gossypii, percent mortality, read-out: MA RESULTS %
Summary of the method: as §1

[12] = tested on: corn rootworm; assay: Mite/insect screen, CRW; conditions: percent mortality, read-out: CRW RESULTS %
Summary of the method: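 Compounds dissolved in 50:50 acetone/alcohol with TOXIMUL R and S emulsifiers (23 and 13 g/L), then diluted in water to the stated test concentrations. Percent mortality of corn rootworm scored after standard exposure periods.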

[13] = foliar, rate 200 ppm, foliar spray on squash
[14] = foliar, rate 400 ppm, foliar spray on squash

| Structure (SMILES) | POWD MDEW [1] | RICE BLAST [2] | LEAF RUST [3] | GRAY MOLD [4] | DOWN MDEW [5] | LEAF SPOT [6] | APPL SCAB [7] | LEAF BLOT [8] | mortality at 200 ppm ([9]; SAW, SM & MA RATE 200 PPM) [%] | mortality at 200 ppm ([10]; SAW, SM & MA RATE 200 PPM) [%] | mortality at 200 ppm ([11]; SAW, SM & MA RATE 200 PPM) [%] | mortality at 12 ppm ([12]; CRW RATE 12.00 PPM) [%] | pest or weed control at 400 ppm [1] [%] | pest or weed control at 400 ppm [2] [%] | pest or weed control at 400 ppm [3] [%] | pest or weed control at 400 ppm [4] [%] | pest or weed control at 400 ppm [5] [%] | pest or weed control at 400 ppm [6] [%] | pest or weed control at 400 ppm [7] [%] | pest or weed control at 400 ppm [8] [%] | further results |
| --- | --- | --- | --- | --- | --- | --- | --- | --- | --- | --- | --- | --- | --- | --- | --- | --- | --- | --- | --- | --- | --- |
| FC(F)(F)c1ccc2c(NCCc3cccs3)ccnc2c1 [Example 153, N-[2-(2-thienyl)ethyl]-7-(trifluoromethyl)-4-quinolinamine] | + (20-89% control at 400 ppm) | ++ (90-100% control at 400 ppm) | ++ (90-100% control at 400 ppm) | - (0-19% control at 400 ppm) | + (20-89% control at 400 ppm) | - (0-19% control at 400 ppm) | - (0-19% control at 400 ppm) | - (0-19% control at 400 ppm) | 0 | 0 | 0 | 0 |  |  |  |  |  |  |  |  |  |
| CC(COc1ccnc2c(F)cccc12)c1ccccc1 (stereo not shown) [Example 220, 4-(2-phenylpropoxy)-8-fluoroquinoline] |  |  |  |  |  |  |  |  |  |  |  |  | 90 to 100 | 20 to 89 | 90 to 100 | 0 to 19 | 90 to 100 | 0 to 19 | 20 to 89 | 0 to 19 | mortality at 200 ppm [9, 13]: 0%; mortality at 400 ppm [9, 14]: 0%; mortality at 200 ppm [10, 13]: 0%; mortality at 400 ppm [10, 14]: 0%; mortality at 200 ppm [11, 13]: 0%; mortality at 400 ppm [11, 14]: 0%; mortality at 12 ppm ([12]; CRW rate 12.00 ppm): 0%; mortality at 24 ppm ([12]; CRW rate 24.00 ppm): 0% |
| CC(CNc1ccnc2ccccc12)(c1ccccc1)c1ccccc1 [Example 34, N-(2,2-diphenylpropyl)-4-quinolinamine] | + (20-89% control at 400 ppm) | + (20-89% control at 400 ppm) | ++ (90-100% control at 400 ppm) | - (0-19% control at 400 ppm) | +++ (90-100% control at 100 ppm) | + (20-89% control at 400 ppm) | - (0-19% control at 400 ppm) | - (0-19% control at 400 ppm) | 0 | 0 | 0 | 0 |  |  |  |  |  |  |  |  |  |
| Fc1cccc2c(OCCc3cccs3)ccnc12 [Example 246, 8-fluoro-4-[2-(2-thienyl)ethoxy]quinoline] |  |  |  |  |  |  |  |  |  |  |  |  | 90 to 100 | 90 to 100 | 90 to 100 | 0 to 19 | 90 to 100 | 20 to 89 | 90 to 100 | 90 to 100 | mortality at 200 ppm [9, 13]: 0%; mortality at 200 ppm [10, 13]: 0%; mortality at 200 ppm [11, 13]: 0%; mortality at 12 ppm ([12]; CRW rate 12.00 ppm): 0% |
